These results are taken from the kinase profiling compilation of Christmann-Franck et al. (2016).

Chain of STK3 (human) (Q13188 whole entry, looked up): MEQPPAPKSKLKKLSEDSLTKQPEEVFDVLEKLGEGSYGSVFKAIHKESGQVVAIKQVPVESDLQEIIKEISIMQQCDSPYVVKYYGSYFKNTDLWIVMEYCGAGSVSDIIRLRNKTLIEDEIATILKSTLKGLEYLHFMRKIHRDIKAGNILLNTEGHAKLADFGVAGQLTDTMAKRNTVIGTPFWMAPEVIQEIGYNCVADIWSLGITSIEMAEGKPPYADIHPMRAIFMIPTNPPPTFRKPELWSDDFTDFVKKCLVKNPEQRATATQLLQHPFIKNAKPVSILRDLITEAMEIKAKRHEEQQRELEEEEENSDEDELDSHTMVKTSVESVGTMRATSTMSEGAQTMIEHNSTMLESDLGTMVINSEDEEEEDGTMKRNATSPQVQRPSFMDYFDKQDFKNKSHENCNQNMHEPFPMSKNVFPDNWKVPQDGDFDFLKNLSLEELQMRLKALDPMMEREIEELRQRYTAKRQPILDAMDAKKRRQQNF
Chain of EPHA5 (human) (P54756 whole entry, looked up): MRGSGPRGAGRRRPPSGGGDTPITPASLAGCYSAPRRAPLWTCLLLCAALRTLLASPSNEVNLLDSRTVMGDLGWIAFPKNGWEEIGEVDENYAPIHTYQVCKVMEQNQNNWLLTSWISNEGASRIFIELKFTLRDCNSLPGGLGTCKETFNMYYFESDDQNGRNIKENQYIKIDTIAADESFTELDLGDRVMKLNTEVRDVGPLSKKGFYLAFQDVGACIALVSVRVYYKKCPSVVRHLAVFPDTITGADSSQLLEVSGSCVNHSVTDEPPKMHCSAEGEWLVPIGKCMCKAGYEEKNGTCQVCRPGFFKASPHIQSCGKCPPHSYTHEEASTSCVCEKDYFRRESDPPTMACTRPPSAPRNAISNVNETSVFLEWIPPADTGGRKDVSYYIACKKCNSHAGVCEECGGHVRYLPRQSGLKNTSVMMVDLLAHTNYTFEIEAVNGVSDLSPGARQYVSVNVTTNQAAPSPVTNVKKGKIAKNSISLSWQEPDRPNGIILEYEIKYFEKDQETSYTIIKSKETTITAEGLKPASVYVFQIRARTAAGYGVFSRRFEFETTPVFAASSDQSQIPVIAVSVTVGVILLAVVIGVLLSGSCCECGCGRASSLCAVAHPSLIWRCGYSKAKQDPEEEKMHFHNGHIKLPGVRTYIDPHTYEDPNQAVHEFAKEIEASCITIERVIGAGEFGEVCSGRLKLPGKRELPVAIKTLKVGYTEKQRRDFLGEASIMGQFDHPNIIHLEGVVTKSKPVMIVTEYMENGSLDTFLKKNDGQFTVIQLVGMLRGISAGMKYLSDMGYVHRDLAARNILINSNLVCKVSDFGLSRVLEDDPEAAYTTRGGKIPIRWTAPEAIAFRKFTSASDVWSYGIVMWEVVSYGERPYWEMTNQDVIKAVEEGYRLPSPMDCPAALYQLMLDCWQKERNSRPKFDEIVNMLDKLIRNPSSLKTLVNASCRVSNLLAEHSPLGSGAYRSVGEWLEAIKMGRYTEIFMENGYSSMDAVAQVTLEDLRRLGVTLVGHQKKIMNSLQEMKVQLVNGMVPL
Chain of LIMK1 (human) (P53667 whole entry, looked up): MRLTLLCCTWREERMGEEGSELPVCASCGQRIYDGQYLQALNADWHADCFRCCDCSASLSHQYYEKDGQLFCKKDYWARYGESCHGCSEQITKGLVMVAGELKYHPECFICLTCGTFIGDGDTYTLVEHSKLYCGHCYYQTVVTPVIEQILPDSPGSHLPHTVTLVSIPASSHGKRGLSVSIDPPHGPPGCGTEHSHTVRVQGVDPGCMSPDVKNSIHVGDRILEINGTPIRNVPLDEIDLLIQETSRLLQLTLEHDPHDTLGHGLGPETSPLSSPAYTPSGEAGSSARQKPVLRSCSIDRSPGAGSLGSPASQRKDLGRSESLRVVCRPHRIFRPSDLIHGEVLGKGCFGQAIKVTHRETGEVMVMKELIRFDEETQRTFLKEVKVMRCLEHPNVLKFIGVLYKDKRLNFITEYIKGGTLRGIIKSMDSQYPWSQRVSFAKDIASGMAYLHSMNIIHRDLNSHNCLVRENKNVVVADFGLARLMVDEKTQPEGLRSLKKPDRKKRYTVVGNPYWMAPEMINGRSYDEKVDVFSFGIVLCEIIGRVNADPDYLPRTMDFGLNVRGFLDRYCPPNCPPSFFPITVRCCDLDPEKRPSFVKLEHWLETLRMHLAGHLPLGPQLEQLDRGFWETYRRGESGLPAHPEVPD

In one test the target is MAPKAPK5 (human) (UniProt Q8IW41). Put plainly: radiometric filter-binding kinase assay, Kinase HotSpot. The conditions noted are these: compound 0.5 µM; ATP 10 µM.
As for `Nc1cccc(-c2cc3c(Oc4cccc(O)c4)ncnc3[nH]2)c1`, the residual activity – broadly, the signal under treatment as a percentage of the control signal – came out at 125%.

Take `CC[n+]1c(/C=C/N(C)c2ccccc2)n(-c2ccccc2)c2ccc(-c3nc4ccccc4s3)cc21`: the residual activity was 96.8%.

A further test deals with HIPK3 (human) (UniProt Q9H422). Described as above. Particulars: compound 0.5 µM; ATP 10 µM.
On to `CCN(CC)C(=O)c1ccc(Nc2nc(OCC3CCCCC3)c3nc[nH]c3n2)cc1`, for which the residual activity stood at 96.4%.

Turning to `Nc1cccc(-c2cc3c(Oc4cccc(O)c4)ncnc3[nH]2)c1`, the residual activity came to 94%.

For `CC[n+]1c(/C=C/N(C)c2ccccc2)n(-c2ccccc2)c2ccc(-c3nc4ccccc4s3)cc21`, the residual activity is 105%.

The target of another test is PDGFRA (human) (UniProt P16234). The description is as above. Particulars: compound 0.5 µM; ATP 10 µM.
Chain of PDGFRA (human) (P16234 whole entry, looked up): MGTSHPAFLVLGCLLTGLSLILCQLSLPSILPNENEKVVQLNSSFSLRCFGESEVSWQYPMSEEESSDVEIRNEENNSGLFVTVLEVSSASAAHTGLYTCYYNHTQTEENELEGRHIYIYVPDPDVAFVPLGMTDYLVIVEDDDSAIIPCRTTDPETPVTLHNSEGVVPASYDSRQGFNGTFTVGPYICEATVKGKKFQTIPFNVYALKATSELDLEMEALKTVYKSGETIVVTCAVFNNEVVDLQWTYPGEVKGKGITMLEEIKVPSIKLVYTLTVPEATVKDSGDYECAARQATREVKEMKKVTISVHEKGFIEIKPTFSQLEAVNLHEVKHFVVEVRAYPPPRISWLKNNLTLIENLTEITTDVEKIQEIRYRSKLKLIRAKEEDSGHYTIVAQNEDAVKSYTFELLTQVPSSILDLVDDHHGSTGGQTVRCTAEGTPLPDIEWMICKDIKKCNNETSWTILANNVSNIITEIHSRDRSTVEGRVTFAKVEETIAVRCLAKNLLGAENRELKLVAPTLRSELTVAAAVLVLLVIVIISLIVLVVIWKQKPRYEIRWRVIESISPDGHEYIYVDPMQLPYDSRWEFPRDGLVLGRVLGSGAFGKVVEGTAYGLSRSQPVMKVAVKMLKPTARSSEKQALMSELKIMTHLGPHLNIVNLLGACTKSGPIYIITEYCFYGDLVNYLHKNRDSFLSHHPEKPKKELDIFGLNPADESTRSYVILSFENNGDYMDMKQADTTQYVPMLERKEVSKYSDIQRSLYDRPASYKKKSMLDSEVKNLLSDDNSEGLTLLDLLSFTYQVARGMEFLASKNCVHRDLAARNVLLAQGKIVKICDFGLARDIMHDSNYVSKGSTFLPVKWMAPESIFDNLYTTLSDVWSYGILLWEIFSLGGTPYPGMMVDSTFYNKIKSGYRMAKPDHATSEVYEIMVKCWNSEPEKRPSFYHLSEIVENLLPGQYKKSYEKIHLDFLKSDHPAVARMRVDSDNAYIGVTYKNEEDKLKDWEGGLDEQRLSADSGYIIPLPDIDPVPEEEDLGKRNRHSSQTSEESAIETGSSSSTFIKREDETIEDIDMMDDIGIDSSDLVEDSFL
Turning to `CCN(CC)C(=O)c1ccc(Nc2nc(OCC3CCCCC3)c3nc[nH]c3n2)cc1`, the residual activity was determined as 66.6%.

As to `Nc1cccc(-c2cc3c(Oc4cccc(O)c4)ncnc3[nH]2)c1`, the residual activity worked out at 73.6%.

Regarding `CC[n+]1c(/C=C/N(C)c2ccccc2)n(-c2ccccc2)c2ccc(-c3nc4ccccc4s3)cc21`, the residual activity was found to be 95.2%.

The target in another test is ROCK1 (human) (UniProt Q13464). Described as above. Particulars: compound 0.5 µM; ATP 10 µM.
Consider `CCN(CC)C(=O)c1ccc(Nc2nc(OCC3CCCCC3)c3nc[nH]c3n2)cc1`, for which the residual activity was found to be 54.9%.

As to `Nc1cccc(-c2cc3c(Oc4cccc(O)c4)ncnc3[nH]2)c1`, the residual activity amounted to 94.1%.

On to `CC[n+]1c(/C=C/N(C)c2ccccc2)n(-c2ccccc2)c2ccc(-c3nc4ccccc4s3)cc21`, for which the residual activity was determined as 98.1%.

The target in the next test is PKN1 (human) (UniProt Q16512). Described as above. The conditions noted are these: compound 0.5 µM; ATP 10 µM.
For the compound `CCN(CC)C(=O)c1ccc(Nc2nc(OCC3CCCCC3)c3nc[nH]c3n2)cc1`, the residual activity was 78.9%.

Turning to `Nc1cccc(-c2cc3c(Oc4cccc(O)c4)ncnc3[nH]2)c1`, the residual activity worked out at 105%.

Turning to `CC[n+]1c(/C=C/N(C)c2ccccc2)n(-c2ccccc2)c2ccc(-c3nc4ccccc4s3)cc21`, the residual activity worked out at 85.7%.

The next test addresses NEK7 (human) (UniProt Q8TDX7). The description is as above. The conditions noted are these: compound 0.5 µM; ATP 10 µM.
As for `CCN(CC)C(=O)c1ccc(Nc2nc(OCC3CCCCC3)c3nc[nH]c3n2)cc1`, the residual activity worked out at 103%.

`Nc1cccc(-c2cc3c(Oc4cccc(O)c4)ncnc3[nH]2)c1`: the residual activity was 99.4%.

For the compound `CC[n+]1c(/C=C/N(C)c2ccccc2)n(-c2ccccc2)c2ccc(-c3nc4ccccc4s3)cc21`, the residual activity stood at 95.4%.

A further test concerns the target EPHA5 (human) (UniProt P54756). The test is described as above. The conditions noted are these: compound 0.5 µM; ATP 10 µM.
As for `CCN(CC)C(=O)c1ccc(Nc2nc(OCC3CCCCC3)c3nc[nH]c3n2)cc1`, the residual activity is 95%.

For the compound `Nc1cccc(-c2cc3c(Oc4cccc(O)c4)ncnc3[nH]2)c1`, the residual activity came to 41.7%.

As for `CC[n+]1c(/C=C/N(C)c2ccccc2)n(-c2ccccc2)c2ccc(-c3nc4ccccc4s3)cc21`, the residual activity is 100%.

For a further test, the target named is AURKA (human) (UniProt O14965). Described as above. Particulars: compound 0.5 µM; ATP 10 µM.
On to `CCN(CC)C(=O)c1ccc(Nc2nc(OCC3CCCCC3)c3nc[nH]c3n2)cc1`, for which the residual activity turned out to be 3.03%.

For `Nc1cccc(-c2cc3c(Oc4cccc(O)c4)ncnc3[nH]2)c1`, the residual activity amounted to 78.2%.

For the compound `CC[n+]1c(/C=C/N(C)c2ccccc2)n(-c2ccccc2)c2ccc(-c3nc4ccccc4s3)cc21`, the residual activity amounted to 88.1%.

In another test the target is FYN (human) (UniProt P06241). Described as above. The conditions noted are these: compound 0.5 µM; ATP 10 µM.
On to `CCN(CC)C(=O)c1ccc(Nc2nc(OCC3CCCCC3)c3nc[nH]c3n2)cc1`, for which the residual activity came out at 62.6%.

With `Nc1cccc(-c2cc3c(Oc4cccc(O)c4)ncnc3[nH]2)c1`, the residual activity is 7.92%.

With `CC[n+]1c(/C=C/N(C)c2ccccc2)n(-c2ccccc2)c2ccc(-c3nc4ccccc4s3)cc21`, the residual activity came to 99.2%.

The next test addresses CAMK1G (human) (UniProt Q96NX5). The test is described as above. The conditions noted are these: compound 0.5 µM; ATP 10 µM.
In the case of `CCN(CC)C(=O)c1ccc(Nc2nc(OCC3CCCCC3)c3nc[nH]c3n2)cc1`, the residual activity came to 96.1%.

Consider `Nc1cccc(-c2cc3c(Oc4cccc(O)c4)ncnc3[nH]2)c1`, for which the residual activity is 99%.

As to `CC[n+]1c(/C=C/N(C)c2ccccc2)n(-c2ccccc2)c2ccc(-c3nc4ccccc4s3)cc21`, the residual activity came to 101%.

The next test deals with EPHA3 (human) (UniProt P29320). The description is as above. The conditions noted are these: compound 0.5 µM; ATP 10 µM.
In the case of `CCN(CC)C(=O)c1ccc(Nc2nc(OCC3CCCCC3)c3nc[nH]c3n2)cc1`, the residual activity is 99.9%.

Consider `Nc1cccc(-c2cc3c(Oc4cccc(O)c4)ncnc3[nH]2)c1`, for which the residual activity amounted to 39.7%.

Consider `CC[n+]1c(/C=C/N(C)c2ccccc2)n(-c2ccccc2)c2ccc(-c3nc4ccccc4s3)cc21`, for which the residual activity was 99.4%.

For a further test, the target named is RPS6KA4 KD2 (human) (UniProt O75676). Described as above. Particulars: compound 0.5 µM; ATP 10 µM.
Chain of RPS6KA4 KD2 (human) (O75676 whole entry, looked up): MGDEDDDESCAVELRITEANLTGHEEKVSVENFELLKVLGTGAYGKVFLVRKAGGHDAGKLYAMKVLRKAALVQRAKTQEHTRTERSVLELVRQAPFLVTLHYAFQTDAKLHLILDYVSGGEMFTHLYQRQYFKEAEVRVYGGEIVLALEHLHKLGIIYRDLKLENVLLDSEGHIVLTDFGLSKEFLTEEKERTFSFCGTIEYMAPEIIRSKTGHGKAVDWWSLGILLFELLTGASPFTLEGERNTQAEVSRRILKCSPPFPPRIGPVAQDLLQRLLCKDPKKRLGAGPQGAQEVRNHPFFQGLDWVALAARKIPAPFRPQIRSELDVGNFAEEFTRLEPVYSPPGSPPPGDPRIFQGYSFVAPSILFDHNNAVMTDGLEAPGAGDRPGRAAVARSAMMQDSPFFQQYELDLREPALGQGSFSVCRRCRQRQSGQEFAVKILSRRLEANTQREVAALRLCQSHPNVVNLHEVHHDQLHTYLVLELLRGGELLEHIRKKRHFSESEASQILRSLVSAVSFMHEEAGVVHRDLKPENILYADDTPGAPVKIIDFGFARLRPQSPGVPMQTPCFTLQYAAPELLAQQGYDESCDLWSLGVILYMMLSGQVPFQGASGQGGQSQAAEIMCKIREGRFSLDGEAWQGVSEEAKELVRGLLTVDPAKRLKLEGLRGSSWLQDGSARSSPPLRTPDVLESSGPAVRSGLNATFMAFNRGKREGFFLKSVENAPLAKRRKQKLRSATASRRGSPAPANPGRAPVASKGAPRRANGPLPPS
For the compound `CCN(CC)C(=O)c1ccc(Nc2nc(OCC3CCCCC3)c3nc[nH]c3n2)cc1`, the residual activity stood at 79.8%.

With `Nc1cccc(-c2cc3c(Oc4cccc(O)c4)ncnc3[nH]2)c1`, the residual activity was determined as 103%.

As for `CC[n+]1c(/C=C/N(C)c2ccccc2)n(-c2ccccc2)c2ccc(-c3nc4ccccc4s3)cc21`, the residual activity is 94.6%.

The target in another test is GSG2 (human) (UniProt Q8TF76). The description is as above. Particulars: compound 0.5 µM; ATP 10 µM.
As for `CCN(CC)C(=O)c1ccc(Nc2nc(OCC3CCCCC3)c3nc[nH]c3n2)cc1`, the residual activity amounted to 94.1%.

For the compound `Nc1cccc(-c2cc3c(Oc4cccc(O)c4)ncnc3[nH]2)c1`, the residual activity is 93.3%.

Turning to `CC[n+]1c(/C=C/N(C)c2ccccc2)n(-c2ccccc2)c2ccc(-c3nc4ccccc4s3)cc21`, the residual activity came out at 110%.

The target of a further test is MAPK1 (human) (UniProt P28482). The description is as above. Particulars: compound 0.5 µM; ATP 10 µM.
Chain of MAPK1 (human) (P28482 whole entry, looked up): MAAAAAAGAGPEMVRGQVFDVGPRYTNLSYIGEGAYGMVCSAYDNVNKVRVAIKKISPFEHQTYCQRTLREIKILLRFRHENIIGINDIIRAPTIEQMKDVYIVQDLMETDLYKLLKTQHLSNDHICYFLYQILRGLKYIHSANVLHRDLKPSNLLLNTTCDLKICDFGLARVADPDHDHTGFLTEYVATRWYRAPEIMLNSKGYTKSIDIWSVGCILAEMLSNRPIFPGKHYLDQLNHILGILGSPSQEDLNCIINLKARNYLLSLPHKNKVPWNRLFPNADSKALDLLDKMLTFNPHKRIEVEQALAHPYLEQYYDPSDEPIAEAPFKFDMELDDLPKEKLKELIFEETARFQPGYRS
As to `CCN(CC)C(=O)c1ccc(Nc2nc(OCC3CCCCC3)c3nc[nH]c3n2)cc1`, the residual activity was 106%.

In the case of `Nc1cccc(-c2cc3c(Oc4cccc(O)c4)ncnc3[nH]2)c1`, the residual activity turned out to be 114%.

In the case of `CC[n+]1c(/C=C/N(C)c2ccccc2)n(-c2ccccc2)c2ccc(-c3nc4ccccc4s3)cc21`, the residual activity was 112%.

The next test has as its target LIMK1 (human) (UniProt P53667). The test is described as above. Particulars: compound 0.5 µM; ATP 10 µM.
As for `CCN(CC)C(=O)c1ccc(Nc2nc(OCC3CCCCC3)c3nc[nH]c3n2)cc1`, the residual activity was found to be 35.2%.

With `Nc1cccc(-c2cc3c(Oc4cccc(O)c4)ncnc3[nH]2)c1`, the residual activity was 22.1%.

Regarding `CC[n+]1c(/C=C/N(C)c2ccccc2)n(-c2ccccc2)c2ccc(-c3nc4ccccc4s3)cc21`, the residual activity is 98.3%.

For a further test, the target named is PAK3 (human) (UniProt O75914). Described as above. Particulars: compound 0.5 µM; ATP 10 µM.
Regarding `CCN(CC)C(=O)c1ccc(Nc2nc(OCC3CCCCC3)c3nc[nH]c3n2)cc1`, the residual activity was determined as 87.7%.

`Nc1cccc(-c2cc3c(Oc4cccc(O)c4)ncnc3[nH]2)c1`: the residual activity turned out to be 79.8%.

Turning to `CC[n+]1c(/C=C/N(C)c2ccccc2)n(-c2ccccc2)c2ccc(-c3nc4ccccc4s3)cc21`, the residual activity was 109%.

Another test has as its target EGFR (human) (UniProt P00533). Described as above. The conditions noted are these: compound 0.5 µM; ATP 10 µM.
For `CCN(CC)C(=O)c1ccc(Nc2nc(OCC3CCCCC3)c3nc[nH]c3n2)cc1`, the residual activity was determined as 88.5%.

Consider `Nc1cccc(-c2cc3c(Oc4cccc(O)c4)ncnc3[nH]2)c1`, for which the residual activity was determined as 7.89%.

Regarding `CC[n+]1c(/C=C/N(C)c2ccccc2)n(-c2ccccc2)c2ccc(-c3nc4ccccc4s3)cc21`, the residual activity is 103%.

The next test deals with YES1 (human) (UniProt P07947). The description is as above. The conditions noted are these: compound 0.5 µM; ATP 10 µM.
Chain of YES1 (human) (P07947 whole entry, looked up): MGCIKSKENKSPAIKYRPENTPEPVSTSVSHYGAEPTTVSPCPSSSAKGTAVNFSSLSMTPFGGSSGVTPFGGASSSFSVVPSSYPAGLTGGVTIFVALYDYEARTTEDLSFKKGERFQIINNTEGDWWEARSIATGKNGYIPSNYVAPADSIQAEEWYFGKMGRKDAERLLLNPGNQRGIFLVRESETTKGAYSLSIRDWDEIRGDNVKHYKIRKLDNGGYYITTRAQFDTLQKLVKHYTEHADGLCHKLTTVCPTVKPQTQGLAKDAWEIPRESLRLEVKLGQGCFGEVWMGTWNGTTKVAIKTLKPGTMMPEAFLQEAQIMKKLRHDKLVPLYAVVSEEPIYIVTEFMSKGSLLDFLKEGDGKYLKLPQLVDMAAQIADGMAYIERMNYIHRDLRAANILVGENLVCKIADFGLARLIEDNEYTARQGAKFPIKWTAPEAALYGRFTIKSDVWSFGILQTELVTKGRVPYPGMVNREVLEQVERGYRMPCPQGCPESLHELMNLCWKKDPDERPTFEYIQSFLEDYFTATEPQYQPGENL
Regarding `CCN(CC)C(=O)c1ccc(Nc2nc(OCC3CCCCC3)c3nc[nH]c3n2)cc1`, the residual activity was 15.4%.

Consider `Nc1cccc(-c2cc3c(Oc4cccc(O)c4)ncnc3[nH]2)c1`, for which the residual activity was found to be 6.05%.

Take `CC[n+]1c(/C=C/N(C)c2ccccc2)n(-c2ccccc2)c2ccc(-c3nc4ccccc4s3)cc21`: the residual activity came to 94.9%.

The next test addresses STK3 (human) (UniProt Q13188). The description is as above. Particulars: compound 0.5 µM; ATP 10 µM.
Take `CCN(CC)C(=O)c1ccc(Nc2nc(OCC3CCCCC3)c3nc[nH]c3n2)cc1`: the residual activity is 62.1%.

For `Nc1cccc(-c2cc3c(Oc4cccc(O)c4)ncnc3[nH]2)c1`, the residual activity was found to be 109%.

For the compound `CC[n+]1c(/C=C/N(C)c2ccccc2)n(-c2ccccc2)c2ccc(-c3nc4ccccc4s3)cc21`, the residual activity was found to be 98.9%.

The next test addresses ADRBK1 (human) (UniProt P25098). Described as above. The conditions noted are these: compound 0.5 µM; ATP 10 µM.
Take `CCN(CC)C(=O)c1ccc(Nc2nc(OCC3CCCCC3)c3nc[nH]c3n2)cc1`: the residual activity was found to be 92.6%.

In the case of `Nc1cccc(-c2cc3c(Oc4cccc(O)c4)ncnc3[nH]2)c1`, the residual activity was determined as 108%.

As for `CC[n+]1c(/C=C/N(C)c2ccccc2)n(-c2ccccc2)c2ccc(-c3nc4ccccc4s3)cc21`, the residual activity amounted to 87.5%.

The target of the next test is CSF1R (human) (UniProt P07333). The test is described as above. The conditions noted are these: compound 0.5 µM; ATP 10 µM.
As to `CCN(CC)C(=O)c1ccc(Nc2nc(OCC3CCCCC3)c3nc[nH]c3n2)cc1`, the residual activity was found to be 5.73%.

In the case of `Nc1cccc(-c2cc3c(Oc4cccc(O)c4)ncnc3[nH]2)c1`, the residual activity was determined as 13.6%.

In the case of `CC[n+]1c(/C=C/N(C)c2ccccc2)n(-c2ccccc2)c2ccc(-c3nc4ccccc4s3)cc21`, the residual activity was determined as 108%.
